Type in all cases: functional
One test concerns A549. The experiment in a line: Cytotoxicity against Homo sapiens (human) A549 cells after 3 days by SRB assay. The following applies: A549, 72 h. In general terms: In SRB staining, fixed cells bind dye roughly in proportion to their protein.
For test [1], the system named is Hemi-diaphragm. Put plainly: Induction of glucose uptake in Rattus norvegicus Wistar (rat) hemi-diaphragm at 2 mg after 45 min by GOD/POD enzymatic method in presence of insulin.
Test [2] concerns Hemi-diaphragm. Put plainly: Induction of glucose uptake in Rattus norvegicus Wistar (rat) hemi-diaphragm at 2 mg after 45 min by GOD/POD enzymatic method.

The structures appear in SMILES notation. Values after ≈ are worked out from the molar mass of the structure shown.

For the compound `O=C1NC(=O)/C(=C/c2ccc(OCCOc3ccccc3Cl)cc2)S1`, the CC50 (commonly the concentration giving 50% cytotoxicity) with A549 stood at 100 µg/mL (≈ 266 µM). Also, the Activity in the test with Hemi-diaphragm [1] is 22.5 mg/dL; with Hemi-diaphragm [2], 6 mg/dL.
Take `CN(CCOc1ccc(CC2SC(=O)NC2=O)cc1)c1ccccn1` (stereo not given) [ROSIGLITAZONE]: the Activity came out at 37 mg/dL in the test on Hemi-diaphragm [1] and 15.5 mg/dL in the test on Hemi-diaphragm [2].
